# Patent US5268374A, “Non-peptide renin inhibitors” (Abbott Laboratories, priority 1991, dated 1993)
# Key:
# [1] = Blood pressure in salt-depleted monkeys after oral dosing; type: in vivo, cynomolgous monkeys; details: 3 mg/kg oral
# Excerpt: (§1) The ability of the compounds of the invention to decrease blood pressure and plasma renin activity in vivo can be determined using the following method.
# (§2) Male cynomolgous monkeys housed under constant temperature and lighting conditions and weighing 3-5 kg were instrumented with chronic indwelling arterial and venous catheters.
# plasma renin = experiment: Plasma renin activity (PRA) in salt-depleted monkeys after oral dosing; type: in vivo, cynomolgous monkeys; details: 3 mg/kg oral
# Excerpt: as §1, §2
# human renal renin = biological target: T1, human renal renin (Homo sapiens, UniProt P00797); experiment: Inhibition of human renal renin in vitro (angiotensin I formation by radioimmunoassay); type: biochemical; details: human renal renin, 37 degrees C, pH 6.0; read-out: IC50
# T1 construct: from tissue; host or cells: human kidney (read from the word 'renal'; no preparation is printed)
# T1 sequence (P00797 67-406): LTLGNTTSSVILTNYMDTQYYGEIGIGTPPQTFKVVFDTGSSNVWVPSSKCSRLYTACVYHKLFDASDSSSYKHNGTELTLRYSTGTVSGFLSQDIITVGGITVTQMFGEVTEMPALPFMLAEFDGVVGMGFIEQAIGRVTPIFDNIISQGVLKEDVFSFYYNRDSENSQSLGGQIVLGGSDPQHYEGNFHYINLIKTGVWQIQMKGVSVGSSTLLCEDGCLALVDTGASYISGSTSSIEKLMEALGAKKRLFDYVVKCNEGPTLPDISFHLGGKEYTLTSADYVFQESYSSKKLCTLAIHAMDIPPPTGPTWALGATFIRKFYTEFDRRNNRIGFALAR
# [2] = Mean of two monkeys, time 0 min
compound,measurement,setting,value
"CCCC[C@H](O[C@@H](Cc1ccccc1)C(=O)N1CCC(OCOC)CC1)C(=O)N[C@@H](CC1CCCCC1)[C@@H](O)C[C@H](C(=O)NCCCN1CCOCC1)C(C)C [Example 118, 2(S)-(1(S)-(4-(Methoxymethoxy)piperidin-1-yl)carbonyl-2-phenyl)ethoxyhexanoic acid amide of 3-(4-morpholinyl)propyl 5(S)-amino-6-cyclohexyl-4(S)-hydroxy-2(S)-isopropylhexanamide]",Blood pressure (BP),"[1]; Mean of two monkeys, 5 min",117 mmHg
same,Blood pressure (BP),"[1]; Mean of two monkeys, 15 min",111 mmHg
same,Blood pressure (BP),"[1]; Mean of two monkeys, 30 min",112 mmHg
same,Blood pressure (BP),"[1]; Mean of two monkeys, 45 min",104 mmHg
same,Blood pressure (BP),"[1]; Mean of two monkeys, 60 min",109 mmHg
same,Blood pressure (BP),"[1]; Mean of two monkeys, 90 min",98 mmHg
same,Blood pressure (BP),"[1]; Mean of two monkeys, 120 min",94 mmHg
same,Blood pressure (BP),"[1]; Mean of two monkeys, 180 min",94 mmHg
same,Blood pressure (BP),"[1]; Mean of two monkeys, 360 min",99 mmHg
same,Blood pressure (BP),[1]; [2],114 mmHg
same,Blood pressure (BP),"[1]; Monkey 1, 5 min",112 mmHg
same,Blood pressure (BP),"[1]; Monkey 1, 15 min",105 mmHg
same,Blood pressure (BP),"[1]; Monkey 1, 30 min",113 mmHg
same,Blood pressure (BP),"[1]; Monkey 1, 45 min",95 mmHg
same,Blood pressure (BP),"[1]; Monkey 1, 60 min",102 mmHg
same,Blood pressure (BP),"[1]; Monkey 1, 90 min",90 mmHg
same,Blood pressure (BP),"[1]; Monkey 1, 120 min",84 mmHg
same,Blood pressure (BP),"[1]; Monkey 1, 180 min",84 mmHg
same,Blood pressure (BP),"[1]; Monkey 1, 360 min",94 mmHg
same,Blood pressure (BP),"[1]; Monkey 1, time 0 min",107 mmHg
same,Blood pressure (BP),"[1]; Monkey 2, 5 min",121 mmHg
same,Blood pressure (BP),"[1]; Monkey 2, 15 min",117 mmHg
same,Blood pressure (BP),"[1]; Monkey 2, 30 min",110 mmHg
same,Blood pressure (BP),"[1]; Monkey 2, 45 min",112 mmHg
same,Blood pressure (BP),"[1]; Monkey 2, 60 min",115 mmHg
same,Blood pressure (BP),"[1]; Monkey 2, 90 min",106 mmHg
same,Blood pressure (BP),"[1]; Monkey 2, 120 min",103 mmHg
same,Blood pressure (BP),"[1]; Monkey 2, 180 min",103 mmHg
same,Blood pressure (BP),"[1]; Monkey 2, 360 min",103 mmHg
same,Blood pressure (BP),"[1]; Monkey 2, time 0 min",120 mmHg
same,Plasma Renin Activity (PRA),"plasma renin; Mean of two monkeys, 5 min",9.7 ng/mL/h
same,Plasma Renin Activity (PRA),"plasma renin; Mean of two monkeys, 15 min",1.5 ng/mL/h
same,Plasma Renin Activity (PRA),"plasma renin; Mean of two monkeys, 30 min",0.4 ng/mL/h
same,Plasma Renin Activity (PRA),"plasma renin; Mean of two monkeys, 45 min",0.2 ng/mL/h
same,Plasma Renin Activity (PRA),"plasma renin; Mean of two monkeys, 60 min",0.2 ng/mL/h
same,Plasma Renin Activity (PRA),"plasma renin; Mean of two monkeys, 90 min",0.0 ng/mL/h
same,Plasma Renin Activity (PRA),"plasma renin; Mean of two monkeys, 120 min",0.3 ng/mL/h
same,Plasma Renin Activity (PRA),"plasma renin; Mean of two monkeys, 180 min",0.3 ng/mL/h
same,Plasma Renin Activity (PRA),"plasma renin; Mean of two monkeys, 360 min",0.2 ng/mL/h
same,Plasma Renin Activity (PRA),plasma renin; [2],23.9 ng/mL/h
same,Plasma Renin Activity (PRA),"plasma renin; Monkey 1, 5 min",5.8 ng/mL/h
same,Plasma Renin Activity (PRA),"plasma renin; Monkey 1, 15 min",0.1 ng/mL/h
same,Plasma Renin Activity (PRA),"plasma renin; Monkey 1, 30 min",0.4 ng/mL/h
same,Plasma Renin Activity (PRA),"plasma renin; Monkey 1, 45 min",0.0 ng/mL/h
same,Plasma Renin Activity (PRA),"plasma renin; Monkey 1, 60 min",0.0 ng/mL/h
same,Plasma Renin Activity (PRA),"plasma renin; Monkey 1, 90 min",0.0 ng/mL/h
same,Plasma Renin Activity (PRA),"plasma renin; Monkey 1, 120 min",0.2 ng/mL/h
same,Plasma Renin Activity (PRA),"plasma renin; Monkey 1, 180 min",0.2 ng/mL/h
same,Plasma Renin Activity (PRA),"plasma renin; Monkey 1, 360 min",0.0 ng/mL/h
same,Plasma Renin Activity (PRA),"plasma renin; Monkey 1, time 0 min",29.1 ng/mL/h
same,Plasma Renin Activity (PRA),"plasma renin; Monkey 2, 5 min",13.5 ng/mL/h
same,Plasma Renin Activity (PRA),"plasma renin; Monkey 2, 15 min",2.9 ng/mL/h
same,Plasma Renin Activity (PRA),"plasma renin; Monkey 2, 30 min",0.4 ng/mL/h
same,Plasma Renin Activity (PRA),"plasma renin; Monkey 2, 45 min",0.3 ng/mL/h
same,Plasma Renin Activity (PRA),"plasma renin; Monkey 2, 60 min",0.3 ng/mL/h
same,Plasma Renin Activity (PRA),"plasma renin; Monkey 2, 90 min",0.0 ng/mL/h
same,Plasma Renin Activity (PRA),"plasma renin; Monkey 2, 120 min",0.4 ng/mL/h
same,Plasma Renin Activity (PRA),"plasma renin; Monkey 2, 180 min",0.4 ng/mL/h
same,Plasma Renin Activity (PRA),"plasma renin; Monkey 2, 360 min",0.3 ng/mL/h
same,Plasma Renin Activity (PRA),"plasma renin; Monkey 2, time 0 min",18.7 ng/mL/h
same,IC50,human renal renin,0.84 nM
